Experiment: plasma pharmacokinetics across mouse strains and doses
Format: in vivo
Description: by determining the absorbance at 570 nm of SRB stain dissolved in Tris base (10 mM, pH 10.5) using a spectrophotometer (BMG Labtech).
In vivo pharmacokinetic analyses
All animal experiments were performed in accordance with the Animals (Scientific Procedures) 1986 Act. 8-9 week old mice were purchased from Charles River Laboratories and housed under specific pathogen-free conditions under 12 hour light/dark cycles.
Female CD-1, CD-1 nude, BALB/c nude and C57BL/6 mice were treated with NU5455 (30 or 100 mg/kg prepared in 1% (v/v) acetic acid or NMP:Encapsin (30% aq):PEG4000 (1:6:3 v/v/v) dosed by oral gavage. Blood samples were collected into heparinized tubes at 15, 30, 60, 180 and 360 minutes post-gavage.
Blood samples were centrifuged at 6700 x g for 3 minutes, the plasma removed and stored at -20°C prior to analysis for drug by HPLC with fluorescence detection. Aliquots of plasma (50 µl) were vigorously vortexed with acetonitrile (450 µl) and the precipitate removed by centrifugation at 6700 x g for 5 minutes. […]
Samples (20 µl) were applied to a 10 x 0.46 cm Genesis C18 4 µm column (Grace Vydac) fitted with an in-line filter. […] Analytes were detected by fluorescence at 390 nm following excitation at 242 nm. Plasma concentrations were determined using linear standard curves (0.01 µM – 10 µM, R2 > 0.98) generated by extracting compounds from […]

CN(C(=O)CN1CCOCC1)c1ccc2sc3c(-c4cccc5c(=O)cc(N6CC7CCC(C6)O7)oc45)cccc3c2c1 [NU5455]
plasma pharmacokinetic profile, CD-1 nude versus C57BL/6 mice (30 mg/kg oral): comparable
duration of plasma concentrations (100 mg/kg oral, versus 30 mg/kg): longer duration

Source: article PMC6934184, “Selective DNA-PKcs inhibition extends the therapeutic index of localized radiotherapy and chemotherapy” (The Journal of Clinical Investigation, 2019)
